Calls of active or inactive are those of the source.
How the values were obtained:
[1] = viability loss in THP-1 monocytes – THP-1 cells, cytotoxicity control for Vif-APOBEC3G degradation inhibitor project, dose response (AID 1117359); type: functional; details: THP-1
[2] = viability of HCT116 lacking mutant beta-catenin – cell-based, human colon tumor, dose response (AID 1045); type: functional;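 note: HCT116 colon tumor cells with beta catenin knocked out; cells exposed to compound for 60 hours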
[3] = biological target: T1, Mannose-6-phosphate isomerase (Homo sapiens, UniProt P34949); assay: MPI inhibition at elevated mannose 6-phosphate – biochemical, fluorescence intensity, high mannose 6-phosphate, primary screen (AID 1220)
T1 sequence (P34949 whole entry): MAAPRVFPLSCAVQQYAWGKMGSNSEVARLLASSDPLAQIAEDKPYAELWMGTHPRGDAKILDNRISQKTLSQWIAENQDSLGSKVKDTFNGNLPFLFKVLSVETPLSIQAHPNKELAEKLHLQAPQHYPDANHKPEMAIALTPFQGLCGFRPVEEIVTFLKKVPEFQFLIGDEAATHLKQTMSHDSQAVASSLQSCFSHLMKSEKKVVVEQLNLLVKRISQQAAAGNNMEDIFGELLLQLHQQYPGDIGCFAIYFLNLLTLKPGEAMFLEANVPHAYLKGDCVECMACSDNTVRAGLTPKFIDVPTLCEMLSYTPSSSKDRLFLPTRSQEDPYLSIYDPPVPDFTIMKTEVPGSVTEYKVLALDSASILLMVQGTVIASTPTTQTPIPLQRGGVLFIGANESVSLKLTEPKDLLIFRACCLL

Vero [4] = assay: viability of Vero cells under compound – cytotoxicity control for flavivirus capping enzyme inhibitors (AID 588742); type: functional; details: Chlorocebus sabaeus
Protein Tat = Protein Tat (Human immunodeficiency virus type 1 group M subtype B (isolate HXB2)(HIV-1), UniProt P04608); type: functional;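 note: tat binding to TAR RNA read out by fluorescence polarization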
[5] = viability of PTEN-deleted HCT116 cells – cell-based, HCT116 PTEN knockout, dose response (AID 1047); type: functional;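 note: HCT116 colon tumor cells with PTEN knocked out; cells exposed to compound for 60 hours before readout; potency for loss of cell viability measured by luminescence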
Hexokinase HKDC1 = biological target: T2, Hexokinase HKDC1 (Homo sapiens, UniProt Q2TB90); assay: SAR analysis of small molecule inhibitors of hexokinase domain containing I (HKDC1). [Related pubchem assays (depositor defined):AID493160, AID493190]; type: functional
T2 sequence (Q2TB90 whole entry): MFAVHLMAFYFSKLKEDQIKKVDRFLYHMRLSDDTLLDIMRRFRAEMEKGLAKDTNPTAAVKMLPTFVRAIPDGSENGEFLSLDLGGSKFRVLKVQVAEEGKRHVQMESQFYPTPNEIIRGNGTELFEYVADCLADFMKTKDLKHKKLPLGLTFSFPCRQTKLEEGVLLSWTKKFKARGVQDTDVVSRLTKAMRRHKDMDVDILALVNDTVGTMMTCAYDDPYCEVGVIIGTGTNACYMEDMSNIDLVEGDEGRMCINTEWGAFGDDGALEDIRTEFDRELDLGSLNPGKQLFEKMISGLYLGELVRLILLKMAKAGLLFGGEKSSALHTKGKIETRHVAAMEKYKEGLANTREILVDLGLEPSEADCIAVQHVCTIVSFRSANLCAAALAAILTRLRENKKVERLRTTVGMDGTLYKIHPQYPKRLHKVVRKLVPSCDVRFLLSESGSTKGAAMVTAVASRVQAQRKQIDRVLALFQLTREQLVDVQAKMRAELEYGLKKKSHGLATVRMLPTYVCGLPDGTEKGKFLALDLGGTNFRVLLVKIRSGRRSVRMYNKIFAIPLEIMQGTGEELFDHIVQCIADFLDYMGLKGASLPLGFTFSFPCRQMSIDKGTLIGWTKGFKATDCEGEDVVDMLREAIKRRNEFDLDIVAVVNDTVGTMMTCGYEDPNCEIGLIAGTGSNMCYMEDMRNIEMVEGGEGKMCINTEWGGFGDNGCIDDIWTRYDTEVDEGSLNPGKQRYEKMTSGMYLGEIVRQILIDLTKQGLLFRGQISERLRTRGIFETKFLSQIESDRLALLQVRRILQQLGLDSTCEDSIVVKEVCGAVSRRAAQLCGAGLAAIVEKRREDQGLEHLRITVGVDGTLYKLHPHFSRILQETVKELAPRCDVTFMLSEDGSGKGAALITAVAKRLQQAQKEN

Hexokinase-1 = biological target: T3, Hexokinase-1 (Homo sapiens, UniProt P19367); assay: SAR analysis of small molecule inhibitors of hexokinase domain containing I (HKDC1) in the hexokinase 1 selectivity assay. [Related pubchem assays (depositor defined):AID493160, AID493190]; type: functional
T3 sequence (P19367 whole entry): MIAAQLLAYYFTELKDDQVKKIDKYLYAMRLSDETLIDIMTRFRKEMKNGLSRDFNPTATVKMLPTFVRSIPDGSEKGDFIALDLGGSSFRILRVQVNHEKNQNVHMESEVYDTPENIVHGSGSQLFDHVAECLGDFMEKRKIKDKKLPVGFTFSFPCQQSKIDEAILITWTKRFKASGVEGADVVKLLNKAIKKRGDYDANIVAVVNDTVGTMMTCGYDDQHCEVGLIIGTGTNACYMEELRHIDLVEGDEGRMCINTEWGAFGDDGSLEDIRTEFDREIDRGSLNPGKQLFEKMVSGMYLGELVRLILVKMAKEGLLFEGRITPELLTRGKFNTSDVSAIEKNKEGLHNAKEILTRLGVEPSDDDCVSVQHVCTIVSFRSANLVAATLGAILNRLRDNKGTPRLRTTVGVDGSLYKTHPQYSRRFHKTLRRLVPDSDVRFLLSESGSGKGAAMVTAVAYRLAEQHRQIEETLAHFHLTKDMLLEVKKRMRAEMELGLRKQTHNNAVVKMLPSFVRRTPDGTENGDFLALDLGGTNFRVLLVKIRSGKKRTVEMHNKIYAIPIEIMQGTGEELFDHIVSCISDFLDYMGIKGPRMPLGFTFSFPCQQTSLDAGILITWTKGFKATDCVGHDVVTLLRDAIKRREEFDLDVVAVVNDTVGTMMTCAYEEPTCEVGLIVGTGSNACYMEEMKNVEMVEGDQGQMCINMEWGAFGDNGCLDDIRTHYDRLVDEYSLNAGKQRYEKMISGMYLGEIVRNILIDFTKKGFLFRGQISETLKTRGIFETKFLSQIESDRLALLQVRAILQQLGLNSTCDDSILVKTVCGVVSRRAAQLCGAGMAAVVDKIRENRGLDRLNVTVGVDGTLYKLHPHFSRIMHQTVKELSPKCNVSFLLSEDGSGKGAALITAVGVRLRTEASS

Cytochrome P450 1A2 = biological target: T4, Cytochrome P450 1A2 (Homo sapiens, UniProt P05177);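 note: PubChem cytochrome P450 panel assay, CYP1A2 panel member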
T4 sequence (P05177 whole entry): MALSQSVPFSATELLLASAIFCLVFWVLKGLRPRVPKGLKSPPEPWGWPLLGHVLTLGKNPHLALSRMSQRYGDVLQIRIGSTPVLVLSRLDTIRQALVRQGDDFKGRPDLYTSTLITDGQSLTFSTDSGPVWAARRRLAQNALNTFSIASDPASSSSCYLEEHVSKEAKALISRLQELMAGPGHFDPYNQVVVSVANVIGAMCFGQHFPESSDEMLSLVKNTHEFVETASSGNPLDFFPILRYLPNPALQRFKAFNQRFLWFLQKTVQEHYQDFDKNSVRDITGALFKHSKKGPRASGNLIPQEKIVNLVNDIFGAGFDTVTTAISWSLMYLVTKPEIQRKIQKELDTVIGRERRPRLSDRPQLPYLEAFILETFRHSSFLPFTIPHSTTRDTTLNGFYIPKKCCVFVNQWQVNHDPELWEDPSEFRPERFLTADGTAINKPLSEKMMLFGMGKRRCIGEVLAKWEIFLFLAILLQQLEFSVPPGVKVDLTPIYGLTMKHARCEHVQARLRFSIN

[6] = biological target: Voltage-gated inwardly rectifying potassium channel KCNH2 (Homo sapiens, UniProt Q12809); details: Potency;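 note: confirmatory quantitative high-throughput screen measuring inhibition of hERG channel activity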
[7] = biological target: 5-hydroxytryptamine receptor 5A (Homo sapiens, UniProt P47898); assay: Counterscreen for agonists of OPRM1-OPRD1 heterodimerization: luminescence-based cell-based high throughput dose response assay to identify agonists of 5-hydroxytryptamine (serotonin) 5A receptor (HTR5A). [Related pubchem assays (depositor defined):AID504326, AID504355, AID504692, AID504904, AID504905]; type: functional
Vero [8] = assay: Vero E6 cell cytotoxicity, dose response, cytotoxicity control (AID 540298); type: functional; details: Chlorocebus sabaeus
Mu-type opioid receptor = Mu-type opioid receptor (Homo sapiens, UniProt P35372); assay: (§1) Counterscreen for agonists of heterodimerization of the mu 1 (OPRM1) and delta 1 (OPRD1) opioid receptors: Luminescence-based cell-based high throughput dose response assay to identify agonists of OPRM1 homodimerization.; type: functional
MDCK [9] = assay: MDCK cell cytotoxicity, dose response, cytotoxicity control (AID 540296); type: functional; details: Canis lupus familiaris
Nonstructural protein 1 = Nonstructural protein 1 (Influenza A virus, UniProt Q194T2); type: functional, Influenza A virus (A/California/07/2009(H1N1))
MDCK [10] = assay: antiviral activity against H1N1 influenza, dose response, cell-based, strain KY136 (AID 540257); type: functional; details: Canis lupus familiaris
[11] = biological target: Heat shock protein HSP 90-alpha (Homo sapiens, UniProt P07900); type: functional, organism-based
[12] = biological target: Delta-type opioid receptor (Homo sapiens, UniProt P41143); assay: as §1, with “of OPRD1” for “of OPRM1”, “homodimerization. [Related pubchem assays (depositor defined):AID504326, AID504355, AID504692, AID504904, AID504905]” for “homodimerization.”; type: functional
Sequence of Delta-type opioid receptor (P41143 whole entry): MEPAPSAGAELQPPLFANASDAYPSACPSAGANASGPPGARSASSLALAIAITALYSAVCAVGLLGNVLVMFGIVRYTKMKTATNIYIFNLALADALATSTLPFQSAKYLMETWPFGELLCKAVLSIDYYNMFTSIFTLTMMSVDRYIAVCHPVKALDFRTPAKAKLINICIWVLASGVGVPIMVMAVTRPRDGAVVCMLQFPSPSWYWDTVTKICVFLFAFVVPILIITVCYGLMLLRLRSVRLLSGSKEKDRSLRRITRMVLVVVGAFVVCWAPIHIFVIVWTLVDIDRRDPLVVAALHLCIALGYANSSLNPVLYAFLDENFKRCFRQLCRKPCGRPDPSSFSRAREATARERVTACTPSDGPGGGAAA

Sequence of Protein Tat (P04608 whole entry): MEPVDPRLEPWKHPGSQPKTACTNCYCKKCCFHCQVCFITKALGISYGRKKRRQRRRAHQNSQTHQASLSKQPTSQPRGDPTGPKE
Sequence of Mu-type opioid receptor (P35372 whole entry): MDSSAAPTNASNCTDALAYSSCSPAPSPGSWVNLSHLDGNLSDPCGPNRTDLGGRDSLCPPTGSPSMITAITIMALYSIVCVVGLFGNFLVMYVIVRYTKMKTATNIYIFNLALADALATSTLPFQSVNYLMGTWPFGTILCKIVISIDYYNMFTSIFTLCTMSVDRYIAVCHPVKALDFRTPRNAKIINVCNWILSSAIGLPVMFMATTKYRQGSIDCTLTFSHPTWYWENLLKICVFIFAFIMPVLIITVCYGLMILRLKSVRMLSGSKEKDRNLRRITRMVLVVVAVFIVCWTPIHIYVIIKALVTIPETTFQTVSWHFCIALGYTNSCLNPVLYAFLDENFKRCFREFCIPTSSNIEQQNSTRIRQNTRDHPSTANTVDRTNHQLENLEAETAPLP
Sequence of Nonstructural protein 1 (Q194T2 whole entry): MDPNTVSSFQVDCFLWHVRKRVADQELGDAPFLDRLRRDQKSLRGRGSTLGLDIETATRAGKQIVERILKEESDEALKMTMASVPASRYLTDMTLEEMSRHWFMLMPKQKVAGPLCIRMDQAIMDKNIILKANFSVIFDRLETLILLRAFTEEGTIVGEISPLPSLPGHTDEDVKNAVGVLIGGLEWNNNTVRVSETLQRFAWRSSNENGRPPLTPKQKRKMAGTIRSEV
Sequence of Voltage-gated inwardly rectifying potassium channel KCNH2 (Q12809 whole entry): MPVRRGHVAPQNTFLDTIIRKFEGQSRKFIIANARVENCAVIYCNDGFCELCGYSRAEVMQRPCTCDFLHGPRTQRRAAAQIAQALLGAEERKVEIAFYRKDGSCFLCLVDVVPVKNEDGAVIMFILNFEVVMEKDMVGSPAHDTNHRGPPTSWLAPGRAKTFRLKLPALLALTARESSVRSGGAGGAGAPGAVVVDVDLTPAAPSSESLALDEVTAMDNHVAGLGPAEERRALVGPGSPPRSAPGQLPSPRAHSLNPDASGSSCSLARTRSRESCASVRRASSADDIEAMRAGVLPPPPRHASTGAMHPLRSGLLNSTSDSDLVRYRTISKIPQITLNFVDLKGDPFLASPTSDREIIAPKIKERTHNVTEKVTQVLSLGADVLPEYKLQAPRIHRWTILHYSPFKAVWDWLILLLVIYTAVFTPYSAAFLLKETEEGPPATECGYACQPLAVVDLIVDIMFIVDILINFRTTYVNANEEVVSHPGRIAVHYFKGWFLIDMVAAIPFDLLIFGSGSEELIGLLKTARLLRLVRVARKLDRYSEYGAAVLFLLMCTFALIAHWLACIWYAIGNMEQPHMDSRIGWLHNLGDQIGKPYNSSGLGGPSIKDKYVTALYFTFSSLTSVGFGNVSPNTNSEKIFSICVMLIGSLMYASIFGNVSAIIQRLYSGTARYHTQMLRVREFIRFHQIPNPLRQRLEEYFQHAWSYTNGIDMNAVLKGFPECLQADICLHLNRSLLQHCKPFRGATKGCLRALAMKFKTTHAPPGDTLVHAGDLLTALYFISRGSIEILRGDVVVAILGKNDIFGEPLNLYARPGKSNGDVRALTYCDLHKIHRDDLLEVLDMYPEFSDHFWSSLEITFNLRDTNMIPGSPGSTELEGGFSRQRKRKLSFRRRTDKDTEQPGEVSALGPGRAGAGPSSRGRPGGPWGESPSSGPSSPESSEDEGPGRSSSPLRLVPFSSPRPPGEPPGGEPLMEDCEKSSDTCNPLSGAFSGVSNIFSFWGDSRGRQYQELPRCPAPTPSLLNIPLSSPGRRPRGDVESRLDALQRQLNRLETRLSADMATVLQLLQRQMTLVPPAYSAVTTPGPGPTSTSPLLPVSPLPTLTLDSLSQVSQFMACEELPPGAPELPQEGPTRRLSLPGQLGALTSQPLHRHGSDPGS
Sequence of 5-hydroxytryptamine receptor 5A (P47898 whole entry): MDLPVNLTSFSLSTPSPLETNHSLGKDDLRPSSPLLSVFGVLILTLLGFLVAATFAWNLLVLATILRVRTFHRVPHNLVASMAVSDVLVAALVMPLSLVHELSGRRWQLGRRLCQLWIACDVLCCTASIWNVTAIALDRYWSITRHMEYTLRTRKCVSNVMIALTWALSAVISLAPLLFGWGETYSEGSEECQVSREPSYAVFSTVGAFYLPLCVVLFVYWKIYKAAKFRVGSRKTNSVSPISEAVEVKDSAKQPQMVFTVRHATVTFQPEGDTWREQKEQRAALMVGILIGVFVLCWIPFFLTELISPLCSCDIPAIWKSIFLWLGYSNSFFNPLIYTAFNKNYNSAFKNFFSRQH

In the case of `CCOc1cccc(CNc2ccc(O)cc2)c1OCc1ccc(Cl)cc1`, the CC50 [1] is reported as 37 µM (active), the EC50 [2] is reported as 29.4 µM (active) and the IC50 [3] is reported as > 50 µM (not active). For the same compound, the CC50 (Vero [4]) was > 40 µM (active), the IC50 (Protein Tat) was 86 µM (inconclusive) and the EC50 [5] was 25.2 µM (active).
In the case of `O=C(O)CCSc1cc(NS(=O)(=O)c2ccccc2)c2ccccc2c1O`, the IC50 (Hexokinase HKDC1) is reported as 7.53 µM (active) and the IC50 (Hexokinase-1) is reported as 62.4 µM (inactive).
For `CC(=O)N[C@@H](Cc1c[nH]c2ccccc12)C(=O)OCc1cc(C(F)(F)F)cc(C(F)(F)F)c1` [L-732138], the AC50 (Cytochrome P450 1A2) was 31.6 µM (inconclusive) and the AC50 [6] was 12.6 µM (inconclusive).
With `O=C(C=P(c1ccccc1)(c1ccccc1)c1ccccc1)c1ccccc1-c1ccccc1C(=O)C=P(c1ccccc1)(c1ccccc1)c1ccccc1` the EC50 [7] was > 92.5 µM (inactive), the CC50 (Vero [8]) was 3.43 µM (active) and the EC50 (Mu-type opioid receptor) was > 92.5 µM (inactive). The CC50 (MDCK [9]) was 6.63 µM (active), the IC50 (Nonstructural protein 1) was 58.5 µM (active) and the IC50 (MDCK [10]) was 2.54 µM (active). For the same compound, the AC50 [11] was 8.19 µM (active) and the EC50 [12] was > 92.5 µM (inactive).
